Assay results taken from patent US11149019B2, “Phenylpyridine derivative and pharmaceutical composition comprising the same” (Daewoong Pharmaceutical Co., Ltd., priority 2017, dated 2021).
pIC50: −log10 of the molar value.

What was measured:
[1] = molecular target: T1, ITK (Homo sapiens, UniProt Q08881); test: ADP-Glo + ITK Kinase enzyme system kit, inhibitory activity against ITK; type: biochemical; details: ITK enzyme 0.4 ng/ul, ATP final concentration of 25 ul, 30° C. for 1 hour, luminescence, duplicate
T1 construct: purchased Promega Corporation
T1 sequence (Q08881 1-620): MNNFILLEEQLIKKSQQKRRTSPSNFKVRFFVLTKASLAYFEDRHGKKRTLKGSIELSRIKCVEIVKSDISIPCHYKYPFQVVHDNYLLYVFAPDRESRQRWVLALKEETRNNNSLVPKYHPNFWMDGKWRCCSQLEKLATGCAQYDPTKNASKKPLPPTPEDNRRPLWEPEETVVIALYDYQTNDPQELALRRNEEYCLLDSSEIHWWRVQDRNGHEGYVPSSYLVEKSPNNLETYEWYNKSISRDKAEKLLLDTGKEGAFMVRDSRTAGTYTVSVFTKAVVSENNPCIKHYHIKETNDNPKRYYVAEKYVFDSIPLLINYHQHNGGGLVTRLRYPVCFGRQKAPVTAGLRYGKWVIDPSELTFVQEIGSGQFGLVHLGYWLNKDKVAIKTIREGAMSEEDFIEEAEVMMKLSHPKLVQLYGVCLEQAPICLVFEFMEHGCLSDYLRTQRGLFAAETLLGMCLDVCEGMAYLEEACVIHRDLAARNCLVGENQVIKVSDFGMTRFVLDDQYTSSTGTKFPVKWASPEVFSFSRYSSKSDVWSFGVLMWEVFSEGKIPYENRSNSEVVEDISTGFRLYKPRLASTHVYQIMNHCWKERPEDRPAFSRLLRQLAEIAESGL
Method: (§1) Inhibitory activities against BTK and ITK were measured for the compounds prepared in the above Examples as follows.
The inhibitory activity against ITK was evaluated using ‘ADP-Glo™+ITK Kinase enzyme system’ kit (Promega Corporation). In a white 96-well plate, 10 ul of ITK enzyme prepared so as to have a final concentration of 0.4 ng/ul was mixed with 5 ul of compounds having a final concentration of 1 uM in the case of evaluating a single concentration of compound and a concentration of 1000, 300, 100, 30, 10, 3, 1, 0.3, 0.1 and 0.03 nM in the case of IC50 evaluation, and then reacted at room temperature for 15 minutes. To the plate on which reactions were completed, 5 ul of substrate and 5 ul of ATP prepared so as to have a final concentration of […] added and then allowed to react at 30° C. for 1 hour. All wells of the plate were treated with 25 ul of ADP-Glo™ reagent and then allowed to react at 30° C. for 40 minutes. After that, all wells were treated with 50 ul of kinase detection buffer, and then allowed to react at 30° C. for 30 minutes under light shielding conditions. For the plate on which all reactions were completed, luminescence was measured and the results were calculated. Evaluation was carried out in duplicate, and negative control and positive control were calculated depending on whether or not the enzyme was added without treatment of the compound. The IC50 was calculated based on the calculated values.

[2] = molecular target: T2, BTK (Homo sapiens, UniProt Q06187); test: ADP-Glo + BTK Kinase enzyme system kit, inhibitory activity against BTK; type: biochemical; details: BTK enzyme 1 ng/ul, ATP 10 μM, 30° C. for 1 hour, luminescence, duplicate
T2 construct: purchased Promega Corporation
Method: as §1
The inhibitory activities against BTK were evaluated using ‘ADP-Glo™+BTK Kinase enzyme system’ kit (Promega Corporation). In a white 96-well plate, 10 ul of BTK enzyme prepared so as to have a final concentration of 1 ng/ul was mixed with 5 μl of compounds having a final concentration of […] the case of evaluating a single concentration of compound and a concentration of 1000, 300, 100, 30, 10, 3, 1, 0.3, 0.1 and 0.03 nM in the case of IC50 evaluation, and then reacted at room temperature for 15 minutes. 5 ul of substrate and 5 ul of ATP prepared so as to have a final concentration of 10 μM were added to the plate on which reactions were completed, and then allowed to react at 30° C. for 1 hour. All wells of the plate were treated with 25 ul of ADP-Glo™ reagent and allowed to react at 30° C. for 40 minutes. After that, all wells were treated with 50 ul of kinase detection buffer, and then reacted at 30° C. for 30 minutes under light shielding conditions. For the plate on which all reactions were completed, luminescence was measured and the results were calculated. Evaluation was carried out in duplicate, and negative control and positive control were calculated depending on whether or not the enzyme was added without treatment of the compound. The IC50 was calculated based on the calculated values.

T2 sequence (Q06187 whole entry): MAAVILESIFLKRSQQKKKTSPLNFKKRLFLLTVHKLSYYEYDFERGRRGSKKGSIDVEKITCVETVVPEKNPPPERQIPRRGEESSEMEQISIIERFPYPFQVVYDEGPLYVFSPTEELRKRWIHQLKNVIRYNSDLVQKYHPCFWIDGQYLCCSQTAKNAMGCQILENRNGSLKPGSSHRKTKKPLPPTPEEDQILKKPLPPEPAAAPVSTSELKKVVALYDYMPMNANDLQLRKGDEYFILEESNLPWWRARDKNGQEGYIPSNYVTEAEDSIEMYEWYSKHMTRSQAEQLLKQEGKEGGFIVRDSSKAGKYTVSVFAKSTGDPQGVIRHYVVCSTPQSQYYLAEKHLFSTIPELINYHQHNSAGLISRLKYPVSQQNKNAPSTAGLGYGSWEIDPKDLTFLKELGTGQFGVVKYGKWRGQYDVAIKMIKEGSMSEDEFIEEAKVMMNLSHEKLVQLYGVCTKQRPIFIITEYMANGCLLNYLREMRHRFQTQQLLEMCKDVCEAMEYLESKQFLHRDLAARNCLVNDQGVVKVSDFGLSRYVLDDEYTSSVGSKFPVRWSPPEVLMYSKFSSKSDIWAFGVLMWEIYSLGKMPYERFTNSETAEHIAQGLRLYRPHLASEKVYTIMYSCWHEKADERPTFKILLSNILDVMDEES

pIC50 [1] | pIC50 [2] | Structure (SMILES)
6.72 | 8.21 | C=CC(=O)Nc1cccc(-c2cc(C)cc(Nc3cc(C)[nH]n3)n2)c1 [Compound 16, N-(3-(4-methyl-6-(5-methyl-1H-pyrazol-3-ylamino)pyridin-2-yl)phenyl)acrylamide]
< 6.00 | 7.54 | C=CC(=O)Nc1cccc(-c2cc(C)cc(Nc3ccccn3)n2)c1 [Compound 18, N-(3-(4-methyl-6-(pyridin-2-ylamino)pyridin-2-yl)phenyl)acrylamide]
< 6.30 | 7.13 | C=CC(=O)Nc1cccc(-c2cc(CNC(C)C(C)(C)C)cc(Nc3cc(C)[nH]n3)n2)c1 (stereo not shown) [Compound 19]
6.60 | 7.55 | C=CC(=O)Nc1cccc(-c2cc(C(=O)NC(C)C(C)(C)C)cc(Nc3cc(C)[nH]n3)n2)c1 (stereo not shown) [Compound 20, 2-(3-acrylamidophenyl)-N-(3,3-dimethylbutan-2-yl)-6-(5-methyl-1H-pyrazol-3-ylamino)isonicotinamide]
< 6.30 | 7.28 | C=CC(=O)Nc1cccc(-c2cc(C(=O)N(C)C)cc(Nc3cc(C)[nH]n3)n2)c1 [Compound 21, 2-(3-acrylamidophenyl)-N,N-dimethyl-6-((5-methyl-1H-pyrazol-3-yl)amino)isonicotinamide]
7.11 | 8.21 | C=CC(=O)Nc1cccc(-c2cc(CN3CCOCC3)cc(Nc3cc(C)[nH]n3)n2)c1 [Compound 22, N-(3-(6-((5-methyl-1H-pyrazol-3-yl)amino)-4-(morpholinomethyl)pyridin-2-yl)phenyl)acrylamide]
6.89 | 7.88 | C=CC(=O)Nc1cccc(-c2cc(-c3ccccc3)cc(Nc3cc(C)[nH]n3)n2)c1 [Compound 23, N-(3-(6-(5-methyl-1H-pyrazol-3-ylamino)-4-phenylpyridin-2-yl)phenyl)acrylamide]
7.23 | 8.07 | C=CC(=O)Nc1cccc(-c2cc(C)cc(Nc3cc(C4CC4)[nH]n3)n2)c1 [Compound 25, N-(3-(6-((5-cyclopropyl-1H-pyrazol-3-yl)amino)-4-methylpyridin-2-yl)phenyl)acrylamide]
7.73 | 8.28 | C=CC(=O)Nc1cccc(-c2cc(C(=O)N3CCOCC3)cc(Nc3ncc(C)s3)n2)c1 [Compound 29, N-(3-(6-((5-methylthiazol-2-yl)amino)-4-(morpholine-4-carbonyl)pyridin-2-yl)phenyl)acrylamide]
< 6.00 | < 6.40 | C=CC(=O)Nc1cccc(-c2cc(N(C)C)cc(Nc3ncc(C)s3)n2)c1 [Compound 35, N-(3-(4-(dimethylamino)-6-((5-methylthiazol-2-yl)amino)pyridin-2-yl)phenyl)acrylamide]
6.40 | < 7.00 | C=CC(=O)Nc1cccc(-c2cc(N3CCOCC3)cc(Nc3ncc(C)s3)n2)c1 [Compound 36, N-(3-(6-((5-methylthiazol-2-yl)amino)-4-morpholinopyridin-2-yl)phenyl)acrylamide]
6.27 | < 6.40 | C/C=C/C(=O)Nc1cccc(-c2cc(Cc3ccccc3)cc(Nc3cc(C)[nH]n3)n2)c1 [Compound 38, (E)-N-(3-(4-benzyl-6-(5-methyl-1H-pyrazol-3-ylamino)pyridin-2-yl)phenyl)but-2-enamide]
< 6.00 | < 6.40 | C=CC(=O)Nc1cccc(-c2cc(CN3CCOCC3)cc(Nc3cc(C)on3)n2)c1 [Compound 40, N-(3-(6-((5-methylisoxazol-3-ylamino)-4-(morpholino)methyl)pyridin-2-yl)phenyl)acrylamide]
< 6.00 | < 6.40 | C=CC(=O)Nc1cccc(-c2cc(CN3CCOCC3)cc(Nc3nnc(C)o3)n2)c1 [Compound 41, N-(3-(6-((5-methyl-1,3,4-oxadiazol-2-yl)amino)-4-(morpholinomethyl)pyridin-2-yl)phenyl)acrylamide]

More lines, now with the values behind:

Structure (SMILES) | pIC50 [1] | pIC50 [2]
C=CC(=O)Nc1cccc(-c2cc(C(F)(F)F)cc(Nc3cc(C)[nH]n3)n2)c1 [Compound 17] | 6.88 | 7.95
C=CC(=O)Nc1cccc(-c2cc(C)cc(Nc3cc(CC)[nH]n3)n2)c1 [Compound 24, N-(3-(6-(5-ethyl-1H-pyrazol-3-ylamino)-4-methylpyridin-2-yl)phenyl)acrylamide] | 6.80 | 7.96
C=CC(=O)Nc1cccc(-c2cc(C)cc(Nc3ncc(C)s3)n2)c1 [Compound 26, N-(3-(4-methyl-6-((5-methylthiazol-2-yl)amino)pyridin-2-yl)phenyl)acrylamide] | 7.12 | 7.98
C=CC(=O)Nc1cccc(-c2cc(CN3CCOCC3)cc(Nc3cc(C4CC4)[nH]n3)n2)c1 [Compound 27, N-(3-(6-((5-cyclopropyl-1H-pyrazol-3-yl)amino)-4-(morpholinomethyl)pyridin-2-yl)phenyl)acrylamide] | 7.43 | 7.16
C=CC(=O)Nc1cccc(-c2cc(C(=O)N3CCOCC3)cc(Nc3cc(C4CC4)[nH]n3)n2)c1 [Compound 28, N-(3-(6-(5-cyclopropyl-1H-pyrazol-3-ylamino)-4-(morpholine-4-carbonyl)pyridin-2-yl)phenyl)acrylamide] | 7.17 | 6.51
C=CC(=O)Nc1cccc(-c2cc(CN3CCOCC3)cc(Nc3ncc(C)s3)n2)c1 [Compound 30, N (3(6(5-methylthiazol-2-ylamino)-4-(morpholinomethyl)pyridin-2-yl)phenyl)acrylamide] | 8.37 | 8.51
C=CC(=O)Nc1cccc(-c2cc(C(=O)N3CCOCC3)cc(Nc3cc(C)[nH]n3)n2)c1 [Compound 31, N-(3-(6-((5-methyl-1H-pyrazol-3-yl)amino)-4-(morpholine-4-carbonyl)pyridin-2-yl)phenyl)acrylamide] | 7.24 | 7.75
C=CC(=O)Nc1cccc(-c2cc(CN3CCOCC3)cc(Nc3ncc(C(=O)Nc4c(C)cccc4Cl)s3)n2)c1 [Compound 33, 2-((6-(3-acrylamidophenyl)-4-(morpholinomethyl)pyridin-2-yl)amino)-N-(2-chloro-6-methylphenyl)thiazole-5-carboxamide] | < 6.00 | 8.72
C=CC(=O)Nc1cccc(-c2cc(CN3CC(C)OC(C)C3)cc(Nc3ncc(C)s3)n2)c1 (stereo not shown) [Compound 34] | 8.51 | 8.62
C=CC(=O)Nc1cccc(-c2cc(CN3CCN(C)CC3)cc(Nc3ncc(C)s3)n2)c1 [Compound 37, N-(3-(4-((4-methylpiperazin-1-yl)methyl)-6-(5-methylthiazol-2-ylamino)pyridin-2-yl)phenyl)acrylamide] | 8.26 | 9.05
C=CC(=O)Nc1cccc(-c2cc(CN3CCOCC3)cc(Nc3nnc(C)s3)n2)c1 [Compound 39, N-(3-(6-(5-methyl-1,3,4-thiadiazol-2-ylamino)-4-(morpholinomethyl)pyridin-2-yl)phenyl)acrylamide] | < 6.00 | 6.60
C=CC(=O)Nc1cccc(-c2cc(CN3CCOCC3)cc(NC(=O)C3CC3)n2)c1 [Compound 42, N-(6-(3-acrylamidophenyl)-4-(morpholinomethyl)pyridin-2-yl)cyclopropanecarboxamide] | < 6.00 | < 6.40
